Assay results taken from ChEMBL document CHEMBL1201862, “PubChem BioAssay data set” (2004).
Active and inactive are the calls of the source.

Columns and labels:
[1] = HGIII-sPLA2 enzyme inhibition potency – biochemical, QFRET, IC50, dose response (AID 743457);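 further: green fluorescence rise as the enzyme cleaves BODIPY PC-A2 in liposomes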
[2] = molecular target: Alkaline phosphatase, placental type (Homo sapiens, UniProt P05187); assay: human placental alkaline phosphatase inhibition – biochemical, luminescence, confirmation (AID 1512); format: functional
Sequence of Alkaline phosphatase, placental type (P05187 whole entry): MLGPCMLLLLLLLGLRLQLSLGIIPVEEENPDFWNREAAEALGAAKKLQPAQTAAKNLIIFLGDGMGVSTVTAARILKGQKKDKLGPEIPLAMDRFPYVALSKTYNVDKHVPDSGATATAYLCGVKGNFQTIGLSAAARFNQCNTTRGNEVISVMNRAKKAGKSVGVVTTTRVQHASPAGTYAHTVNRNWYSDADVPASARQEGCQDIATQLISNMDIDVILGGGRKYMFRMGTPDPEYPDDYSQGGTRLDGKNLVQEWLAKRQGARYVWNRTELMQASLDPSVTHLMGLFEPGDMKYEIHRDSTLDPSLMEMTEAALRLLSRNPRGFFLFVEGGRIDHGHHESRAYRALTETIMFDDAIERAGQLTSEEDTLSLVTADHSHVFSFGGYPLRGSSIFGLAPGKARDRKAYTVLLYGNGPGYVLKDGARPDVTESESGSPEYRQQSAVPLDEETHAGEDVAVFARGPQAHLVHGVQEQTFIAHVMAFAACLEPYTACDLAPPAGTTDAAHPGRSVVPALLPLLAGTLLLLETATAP

Ion channel NompC = Ion channel NompC (Danio rerio, UniProt Q7T1G6); assay: Dose response cell-based high-throughput screening assay for agonists of the transient receptor potential channel N1 (TRPN1). [Related pubchem assays (depositor defined):AID1424, AID1448]; format: functional
Sequence of Ion channel NompC (Q7T1G6 whole entry): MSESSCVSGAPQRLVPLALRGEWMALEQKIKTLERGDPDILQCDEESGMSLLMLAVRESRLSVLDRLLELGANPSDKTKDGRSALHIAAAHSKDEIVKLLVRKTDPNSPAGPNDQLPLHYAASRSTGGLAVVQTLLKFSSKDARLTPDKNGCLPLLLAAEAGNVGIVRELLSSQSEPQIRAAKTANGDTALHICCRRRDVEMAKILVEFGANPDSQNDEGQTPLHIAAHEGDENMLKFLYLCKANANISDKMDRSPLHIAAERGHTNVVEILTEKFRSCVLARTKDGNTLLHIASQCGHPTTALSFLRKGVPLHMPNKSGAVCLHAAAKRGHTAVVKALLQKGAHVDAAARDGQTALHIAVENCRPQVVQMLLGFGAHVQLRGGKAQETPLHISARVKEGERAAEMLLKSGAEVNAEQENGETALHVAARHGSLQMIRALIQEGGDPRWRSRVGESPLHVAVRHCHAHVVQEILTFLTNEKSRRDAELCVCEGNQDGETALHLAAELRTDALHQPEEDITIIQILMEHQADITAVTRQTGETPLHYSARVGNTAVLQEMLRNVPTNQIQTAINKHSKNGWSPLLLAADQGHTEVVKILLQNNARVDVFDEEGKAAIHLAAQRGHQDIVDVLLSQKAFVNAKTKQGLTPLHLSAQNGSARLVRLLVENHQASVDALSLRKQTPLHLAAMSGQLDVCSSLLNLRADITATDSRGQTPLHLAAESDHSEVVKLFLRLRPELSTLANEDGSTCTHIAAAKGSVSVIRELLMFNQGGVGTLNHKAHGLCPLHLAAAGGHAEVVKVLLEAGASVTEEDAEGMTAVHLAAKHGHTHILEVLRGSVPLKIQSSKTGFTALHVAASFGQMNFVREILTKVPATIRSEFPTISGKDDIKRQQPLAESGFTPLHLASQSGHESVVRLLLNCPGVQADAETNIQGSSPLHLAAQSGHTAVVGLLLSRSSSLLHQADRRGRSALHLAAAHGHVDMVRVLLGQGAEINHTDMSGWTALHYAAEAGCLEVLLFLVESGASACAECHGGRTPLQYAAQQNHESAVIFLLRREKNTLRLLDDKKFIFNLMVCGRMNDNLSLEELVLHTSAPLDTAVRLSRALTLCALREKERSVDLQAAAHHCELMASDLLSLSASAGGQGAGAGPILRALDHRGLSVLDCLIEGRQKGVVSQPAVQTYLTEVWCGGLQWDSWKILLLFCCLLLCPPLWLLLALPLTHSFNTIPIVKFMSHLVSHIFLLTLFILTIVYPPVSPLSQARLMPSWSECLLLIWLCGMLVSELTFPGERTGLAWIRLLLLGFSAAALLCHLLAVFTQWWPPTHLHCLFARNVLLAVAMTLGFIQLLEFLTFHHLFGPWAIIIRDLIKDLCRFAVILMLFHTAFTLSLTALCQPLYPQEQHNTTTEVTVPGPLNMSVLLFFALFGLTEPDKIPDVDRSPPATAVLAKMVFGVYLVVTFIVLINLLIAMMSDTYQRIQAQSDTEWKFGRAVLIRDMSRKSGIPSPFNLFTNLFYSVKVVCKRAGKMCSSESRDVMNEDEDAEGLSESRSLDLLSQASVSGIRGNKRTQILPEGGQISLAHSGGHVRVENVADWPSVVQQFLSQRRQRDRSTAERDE

Mucolipin-3 = molecular target: T1, Mucolipin-3 (Homo sapiens, UniProt Q8TDD5); assay: Fluorescence counterscreen assay for […] agonists: dose response cell-based high-throughput screening assay to identify agonists of the transient receptor potential channel ML3 (TRPML3). [Related pubchem assays: 1424, 1448 ]; format: functional
T1 sequence (Q8TDD5 whole entry): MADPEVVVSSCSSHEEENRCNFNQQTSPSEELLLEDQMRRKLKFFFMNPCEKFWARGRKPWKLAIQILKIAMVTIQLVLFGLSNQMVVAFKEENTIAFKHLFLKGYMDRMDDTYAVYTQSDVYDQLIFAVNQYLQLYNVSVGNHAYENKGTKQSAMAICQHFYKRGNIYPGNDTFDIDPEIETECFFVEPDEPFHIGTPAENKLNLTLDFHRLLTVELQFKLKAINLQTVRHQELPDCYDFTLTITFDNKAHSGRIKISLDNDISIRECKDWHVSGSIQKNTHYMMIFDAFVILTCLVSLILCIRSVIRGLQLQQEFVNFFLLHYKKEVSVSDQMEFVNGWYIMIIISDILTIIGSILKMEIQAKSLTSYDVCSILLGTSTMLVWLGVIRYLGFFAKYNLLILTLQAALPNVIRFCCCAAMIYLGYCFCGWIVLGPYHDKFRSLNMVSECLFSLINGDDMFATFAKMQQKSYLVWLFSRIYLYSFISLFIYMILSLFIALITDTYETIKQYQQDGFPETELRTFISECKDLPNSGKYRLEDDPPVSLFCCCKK

| Structure (SMILES) | IC50 [1] | IC50 [2] | EC50 (Ion channel NompC) | EC50 (Mucolipin-3) |
| --- | --- | --- | --- | --- |
| CCN=C(S)NN=C(S)NCc1ccccc1 | > 122 µM (inactive) | > 100 µM (inactive) |  |  |
| CC(C)S(=O)(=O)c1csc(NC(=O)Nc2ccc(Cl)cc2)c1 |  |  | > 29.9 µM (inactive) | > 29.9 µM (not active) |
